Assay results published in patent US4766108A, “Tyr-Arg-vasopressin antagonists” (Smith Kline Beckman Corporation, priority 1986, dated 1988).
Numbered stars: 1 amine (or outer) side, 2 acyl side, 3 side chain; on linkers, the order of the positions; unused ones are H or OH. Bridge positions count the residues as written; N and C are the ends. Square brackets hold non-standard residues; d marks the D form. Peptide text beside a SMILES is read from it. X1 = O=C(CC1(S[*:2])CCCCC1)[*:1]

What was measured:
[1] = molecular target: T1, vasopressin receptors (V2 -receptors) in the porcine renal medullary membrane (Sus scrofa, UniProt P32307); experiment: [3H]-LVP binding, porcine renal medullary membrane (Kbind); conditions: affinity of ligand for receptor in porcine renal medullary membrane; from IC50 of [3H]-LVP binding, Kb = IC50/(1 + L/KD)
T1 construct: the porcine renal medullary membrane; It is derived from the equation for; from tissue; host or cells: porcine (hog) kidney medullary membranes
T1 sequence (P32307 whole entry): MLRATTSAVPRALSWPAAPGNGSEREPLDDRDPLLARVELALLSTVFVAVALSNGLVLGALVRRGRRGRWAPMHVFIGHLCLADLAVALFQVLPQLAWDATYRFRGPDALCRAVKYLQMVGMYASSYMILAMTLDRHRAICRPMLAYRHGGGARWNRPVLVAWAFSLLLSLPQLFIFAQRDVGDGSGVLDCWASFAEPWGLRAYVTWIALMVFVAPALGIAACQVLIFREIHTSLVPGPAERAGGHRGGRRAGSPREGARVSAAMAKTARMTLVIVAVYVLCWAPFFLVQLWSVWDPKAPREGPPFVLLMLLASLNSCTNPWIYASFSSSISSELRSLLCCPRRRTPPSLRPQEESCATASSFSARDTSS
Method: (§1) V2 -antagonistic activity toward the natural anti-diuretic hormone (anti-ADH activity) is determined, in vitro, in the medullary tissue of hog or human kidneys and, in vivo, in the hydropenic rat. The in vitro assay procedures for vasopressin stimulated adenylate cyclase activation or vasopressin binding activity are described by F. Stassen et al., J. Pharmacology and Experimental Therapeutics, 223, 50-54 (1982). V1 -antagonistic activity is determined by procedures using the rat thoracic aortic tissue and plasma membranes of rat liver. These procedures are described in the noted Stassen publication and in a publication at the lst International Conference on Diuretics, Miami, Fla., March (1984). Oxytocin antagonism is determined as described by W. Sawyer et al., Endocrinology, 106 81 (1979). | ^a Kbind is a measure of the affinity of ligand for receptor in | the porcine renal medullary membrane. It is derived from the equation for | competitive inhibition Kb = IC50 /(1 + L/KD) where | IC50 is the concentration of the ligand for 50% inhibition of [^ | H]-LVP binding, L is the concentration of the ligand, and KD is the | dissociation constant of [ ^3 H]-LVP.

[2] = molecular target: T2, V1 receptor, human liver membrane (Homo sapiens, UniProt P37288); experiment: Binding to human liver membrane (V1 receptor); conditions: read-out: Kbind human liver (V1 receptor)
T2 construct: from tissue; host or cells: human liver membranes
T2 sequence (P37288 whole entry): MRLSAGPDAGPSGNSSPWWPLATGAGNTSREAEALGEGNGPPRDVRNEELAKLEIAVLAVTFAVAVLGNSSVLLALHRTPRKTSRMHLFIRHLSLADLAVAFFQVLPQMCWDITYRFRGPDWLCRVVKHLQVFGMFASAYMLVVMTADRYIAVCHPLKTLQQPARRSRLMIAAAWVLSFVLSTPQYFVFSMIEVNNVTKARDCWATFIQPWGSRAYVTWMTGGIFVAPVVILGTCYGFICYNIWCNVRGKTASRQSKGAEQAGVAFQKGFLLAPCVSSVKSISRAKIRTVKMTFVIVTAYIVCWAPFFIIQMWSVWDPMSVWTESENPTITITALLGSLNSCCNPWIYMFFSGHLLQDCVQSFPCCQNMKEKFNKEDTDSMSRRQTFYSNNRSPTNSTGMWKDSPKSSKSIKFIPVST
Method: as §1, with “(1979).” for “(1979). | ^a Kbind is a measure of the affinity of ligand for receptor in | the porcine renal medullary membrane. It is derived from the equation for | competitive inhibition Kb = IC50 /(1 + L/KD) where | IC50 is the concentration of the ligand for 50% inhibition of [^ | H]-LVP binding, L is the concentration of the ligand, and KD is the | dissociation constant of [ ^3 H]-LVP.”
^d Kbind relates to human liver membrane activity.

Ki [1] [nM] | Ki [2] [nM] | SMILES
8.8 | – | CCOc1ccc(C[C@H]2NC(=O)CC3(CCCCC3)SSC[C@@H](C(=O)N[C@@H](CCCCN)C(=O)N[C@@H](CCCNC(=N)N)C(N)=O)NC(=O)[C@H](CC(N)=O)NC(=O)[C@H](C(C)C)NC(=O)[C@H](Cc3ccccc3)NC2=O)cc1 [compound 4] ([dY](Et)FVNCKR-NH2; linker N-5 via X1)
23 | 1.8 | CCOc1ccc(C[C@H]2NC(=O)CC3(CCCCC3)SSC[C@@H](C(=O)N[C@@H](CCCNC(=N)N)C(=O)N[C@@H](Cc3ccc(O)cc3)C(N)=O)NC(=O)[C@H](CC(N)=O)NC(=O)[C@H](C(C)C)NC(=O)[C@H](Cc3ccccc3)NC2=O)cc1 [No. 2, [1-(β-mercapto-β,β-cyclopentamethylene-propionic acid)-2-(O-ethyl)-D-tyrosine-4-valine-7-arginine-8-tyrosine-9-desglycine]-vasopressin] ([dY](Et)FVNCRY-NH2; linker N-5 via X1)
14 | – | CCOc1ccc(C[C@H]2NC(=O)CC3(CCCCC3)SSC[C@@H](C(=O)N[C@@H](Cc3ccc(O)cc3)C(=O)N[C@@H](CCCNC(=N)N)C(N)=O)NC(=O)[C@H](CC(N)=O)NC(=O)[C@H](C(C)C)NC(=O)[C@H](Cc3ccccc3)NC2=O)cc1 [No. 1, [1-(β-mercapto-β,β-cyclopentamethylene-propionic acid)-2-(O-ethyl)-D-tyrosine-4-valine-7-tyrosine-8-arginine-desglycine]-vasopressin] ([dY](Et)FVNCYR-NH2; linker N-5 via X1)
11 | 1.2 | CCOc1ccc(C[C@H]2NC(=O)CC3(CCCCC3)SSC[C@@H](C(=O)N[C@@H](CCCNC(=N)N)C(N)=O)NC(=O)[C@H](CC(N)=O)NC(=O)[C@H](C(C)C)NC(=O)[C@H](Cc3ccccc3)NC2=O)cc1 [compound 5] ([dY](Et)FVNCR-NH2; linker N-5 via X1)
2.7 | – | CCOc1ccc(C[C@H]2NC(=O)CC3(CCCCC3)SSC[C@@H](C(=O)N[C@@H](CCCNC(=N)N)C(=O)N[C@@H](CCCNC(=N)N)C(N)=O)NC(=O)[C@H](CC(N)=O)NC(=O)[C@H](C(C)C)NC(=O)[C@H](Cc3ccccc3)NC2=O)cc1 [compound 3] ([dY](Et)FVNCRR-NH2; linker N-5 via X1)
